US20070232650A1, “Malate salts, and polymorphs of (3S,5S)-7-[3-amino-5-methyl-piperidinyl]-1-cyclopropyl-1,4-dihydro-8-methoxy-4-oxo-3-quinolinecarboxylic acid” (The Procter & Gamble Company, priority 2006, published 2007)

Columns and labels:
[1] = Solubility of isolated salt forms (salt screen)
[2] = Chemical stability of salt forms; type: physicochemical; details: upon scale up
Excerpt: Malate salts of 7-[3S-amino-5S-methyl-piperidinyl]-1-cyclopropyl-1,4-dihydro-8-methoxy-4-oxo-3-quinolinecarboxylic acid may be formed and isolated under practical manufacturing conditions. Use of the chiral malate for salt formation (as the racemic mix or the chirally pure forms) may in some instances assist with chiral purification of 7-[3S-amino-5S-methyl-piperidinyl]-1-cyclopropyl-1,4-dihydro-8-methoxy-4-oxo-3-quinolinecarboxylic acid. […] Using the same test methods, the anhydrate forms are shown to pick up moisture and spontaneously convert to the corresponding hydrated form upon exposure to humidity.

Row | Molecule | Solubility ([1]; salt screen, Table 1) | Ease of Isolation (degradation) [2] | Solubility ([1]; water) [mg/mL]
1 | COc1c(N2C[C@@H](C)C[C@H](N)C2)ccc2c(=O)c(C(=O)O)cn(C3CC3)c12 (racemic) [DL-malate, hemi-hydrate, (3S,5S)-7-[3-amino-5-methyl-piperidinyl]-1-cyclopropyl-1,4-dihydro-8-methoxy-4-oxo-3-quinolinecarboxylic acid] | 12 (hemi- mg/ml | – | –
2 | O=C(O)[C@H]1OC(O)[C@H](O)[C@@H](O)[C@@H]1O (stereo partly drawn) [D-Glucuronate] | 8 mg/mL | Degradation | –
3 | COc1c(N2C[C@@H](C)C[C@H](N)C2)ccc2c(=O)c(C(=O)O)cn(C3CC3)c12 [Freebase, (3S,5S)-7-[3-amino-5-methyl-piperidinyl]-1-cyclopropyl-1,4-dihydro-8-methoxy-4-oxo-3-quinolinecarboxylic acid] | – | – | < 1
4 | Fumarate | 9 mg/mL | – | –
